Results: patent US8883752B2, “5′ and 2′ BIS-substituted nucleosides and oligomeric compounds prepared therefrom” (Isis Pharmaceuticals, Inc., priority 2008, dated 2014)
Oligonucleotides are written 5' to 3', each unit as a sugar letter and its base; * is a phosphorothioate linkage, no mark a phosphodiester; rarer units and linkages stand in square brackets, end groups in braces. Plain capitals give the bases only. [DMAEAc-N] = 2'-O-dimethylaminoethyl acetamide sugar (N: the base); [5'R-Me-N] = (R)-5'-methyl-2'-deoxyribonucleoside (N: the base); {Py} = methylenephosphonate group, PO(OH)2CH2-; e = 2'-O-(2-methoxyethyl) (MOE); [5mC] = 5-methylcytosine; d = 2'-deoxy (DNA); m = 2'-O-methyl; {P} = phosphate; f = 2'-fluoro

How the values were obtained:
[1] = tested on: PTEN mRNA; experiment: PTEN mRNA levels in liver of Balb/c mice after single i.p. injection (Example 65); assay type: in vivo, mouse; settings: 48 h; for Inhibition of PTEN in vivo (in words): 75 mg/kg; for % inhibition of PTEN mRNA expression: liver, single i.p. 75 mg/kg, normalized to saline-injected control
Description: In accordance with the present disclosure, oligomeric compounds were synthesized and tested for their ability to reduce PTEN expression in vivo at dose of 75 mg/kg. Six week old male Balb/c mice (Jackson Laboratory, Bar Harbor, Me.) were administered a single intraperitoneal (i.p) injection at 75 mg/kg of ISIS 467074 having a 5′-phosphate group and […] having a 5′-methylenephosphonate group, (PO(OH)2CH2—). A 5-10-5 gapped oligomer, ISIS 116847 having 2′-O-MOE modified nucleosides in wings with a 5′-phosphorothioate group was included for comparison.
Each dose group consisted of four animals. The mice were sacrificed 48 hours following the final administration to determine the PTEN mRNA levels in liver using real-time PCR and RIBOGREEN® RNA quantification reagent (Molecular Probes, Inc. Eugene, Oreg.) according to standard protocols. PTEN mRNA levels were determined relative to total RNA (using Ribogreen), prior to normalization to saline-treated control. Results are listed below as the average % inhibition of PTEN mRNA expression for each treatment group, normalized to saline-injected control.

[2] = In vivo stability: tissue level of intact compound (Example 66); design: species or system mouse; settings: Balb/c mice
Description: […] were homogenized in a homogenation buffer (20 mM Tris, pH 8, 20 mM EDTA and 0.1 M NaCl in 0.5% NP-40) at time points 0, 5, 10, 20, 30, 40 and 60 minutes (Exception: 06/408877 at time points 0, 15, 30, 60, 120 and 240 mins, 06/409044, at time points 0, 0.5, 1, 2, 4, 8, and 18 hours). An internal standard (18/355868, a 27-mer, 2′-O-methoxyethyl-modified phosphorothioate oligonucleotide, or 19/116847, a 5-10-5 gapmer, 2′-O-methoxyethyl-modified phosphorothioate oligonucleotide) with concentration at 20 μg/g was added prior to extraction. Tissue samples were extracted with 70 μL of NH4OH and 240 μL of phenol/chloroform/isoamyl alcohol (25:24:1). The supernatant was removed after centrifugation at 14000 rpm for […]. The remaining extractant was vortexed with an additional 500 μL of water and the aqueous layer was removed and combined with the supernatant after centrifugation at 14000 rpm for 2 minutes.
Triethylammonium acetate solution at 1M (500 μL) was added to the supernatant. The aqueous layer of the mixture was loaded onto the pre-conditioned Biotage™ Phenyl Solid Phase Extraction Plate (SPE plate) after centrifugation at 9000 rpm for 20 minutes. The SPE plate was washed several times with water. The sample was then eluted with 1.5 mL of 1% TEA in 90% MeOH and filtered through the Protein Precipitation Plate (Phenomenex™). The elutent was evaporated to dryness and diluted to 200 μL with 50% quenching buffer (8 M urea, 50 mM EDTA) and water before sample injection.
An Agilent 1100 Series LC/MSD system was connected in-line to a mass spectrometry. Mass spectrometer was operated in the electrospray negative ionization mode. The nebulizer nitrogen gas was set at […] and the drying nitrogen gas was set at 12 L/min. The drying temperature was 325° C. Samples (25 μL/well) were introduced via an auto sampler and reversed-phase chromatography was carried out with an)(Bridge OST C18 2.5 μm 2.1 mm×50 mm HPLC column using a flow rate of 300 μL/min at 55° C. The ion pair buffers consisted of A: 5 mM tributylammonium acetate (TBAA) in 20% acetonitrile and B: […] TBAA in 90% acetonitrile and the loading buffer was 25 mM TBAA in 25% Acetonitrile. Separation was performed on a 30% to 70% B in 9 min and then 80% B in 11 min gradient.
Quantitative analysis of oligonucleotide and internal standard by extracted ion chromatograms of the most abundant ions was performed using MSD ChemStation software.
The in vivo stability of the three oligomeric compounds in Example 65 was evaluated. The tissue samples were obtained from the animals in which PTEN was assessed. Tissue samples were collected and prepared using the same technique described in Example 64. Quantitative analysis of the oligonucleotides standard were performed by extracted ion chromatograms in the most abundant charge state (−4) using Chemstation software. The tissue level (μg/g) of intact compound of ISIS 116847, 467074 and 467076 was measured and are provided below.

[3] = Modified ssRNA 5′-phosphate serum stability assay; assay type: in vitro ADME; settings: 10 μM in 95% fresh mouse serum, 37° C., 0-24 h, LC/MS
Description: A serum stability assay is useful for evaluating the stability of oligomeric compounds in the presences of nucleases and other enzymes found in serum. For example, the stability of a 5′-terminal phosphate group of an oligomeric compound can be evaluated by assessing the ability of the 5′-terminal phosphate group to remain attached to the oligomeric compound in the presence of serum. Accordingly, a serum stability assay was employed to evaluate the stability of modified ssRNAs having a 5′-terminal phosphate group.
Various modified ssRNAs, shown below, having a 5′-terminal phosphate group (10 μM) were dissolved in 95% of fresh mouse serum and incubated at 37° C. Aliquots of serum (100 μL) were removed after 0, 1, 3, 6 or 24 hours of incubation times. The serum samples were immediately quenched and snap frozen. The samples were extracted by the strong anion exchange (SAX) and octadecylsilyl (C-18) columns. For each incubation time, the amount of full length modified ssRNA having a 5′-terminal phosphate group was determined by LC/MS, and the half-life of the full length modified ssRNA having a 5′ terminal phosphate group was calculated. The results are expressed as half-time (T1/2) in the table below.

ISIS 467074: modified ssRNA, SEQ ID NO 06: P-TScUfGmUfCmUfCmUfGmGfUmCfCmUfUmAfCmUfUmAeAe (antisense TUGUCUCUGGUCCUUACUUAA; 5'-phosphate, modified sugars, 2'-F/2'-OMe, MOE, chemistry not fully specified)
Inhibition of PTEN in vivo (in words) [1]: lowest amount of PTEN reduction
% inhibition of PTEN mRNA expression [1]: 11%
Compound lacking the 5′-phosphate in tissue ([2]; 75 mg/kg, 48 h): lacking the 5′-phosphate was detected
Level of intact compound in tissue (in words) ([2]; 75 mg/kg, 48 h): not detected

ISIS 116847: 5-10-5 gapped oligomer with 2′-O-MOE wings, included for comparison: meCeTeGemeCeTeAGmeCmeCTmeCTGGATeTeTeGeAe (e[5mC]*eT*eG*e[5mC]*eT*dA*dG*d[5mC]*d[5mC]*dT*d[5mC]*dT*dG*dG*dA*eT*eT*eT*eG*eA) [reference compound]
Inhibition of PTEN in vivo (in words) [1]: potent inhibitor of PTEN
% inhibition of PTEN mRNA expression [1]: 76%
Tissue Level of intact compound ([2]; 75 mg/kg i.p., 48 h time point, LC-MS): 131.1 µg/g
Level of intact compound in tissue (in words) ([2]; 75 mg/kg, 48 h): present at high levels

ISIS 467076: 5′-methylenephosphonate ssRNA, SEQ ID NO 05: Py-meUmUfGmUfCmUfCmUfGmGfUmCfCmUfUmAfCmUfUmAeAe (antisense {Py}-mT*fU*mGfU*mCfU*mCfU*mGfG*mUfC*mCfU*mU*fA*mC*fU*mU*eA*eA; further chemistry not fully specified)
Inhibition of PTEN in vivo (in words) [1]: smaller inhibition of PTEN
% inhibition of PTEN mRNA expression [1]: 16%
Level of intact compound in tissue (in words) ([2]; 75 mg/kg, 48 h): present at a lower concentration

ISIS 422391: modified ssRNA, SEQ ID NO 06: P-TdUfGfUfCfUfCfUfGfGfUfCfCfUfUfAfCfUfUfAeAe; d = 2′-O-DMAEAc (antisense {P}-[DMAEAc-T]fUfGfUfCfUfCfUfGfGfUfCfCfU*fU*fA*fC*fU*fU*eA*eA; single-stranded RNA for RNAi)
T1/2 (h) of full length modified ssRNA having a 5′-terminal phosphate group [3]: 6.5 h

ISIS 404320: modified ssRNA targeting PTEN, SEQ ID NO 05: P-UfUfGfUfCfUfCfUfGfGfUfCfCfUfUfAfCfUfUfAeAe (antisense {P}-fUfUfGfUfCfUfCfUfGfGfUfCfCfU*fU*fA*fC*fU*fU*eA*eA; single-stranded RNA for RNAi)
T1/2 (h) of full length modified ssRNA having a 5′-terminal phosphate group [3]: 4 h

ISIS 432356: modified ssRNA, SEQ ID NO 06: P-TRUfGfUfCfUfCfUfGfGfUfCfCfUfUfAfCfUfUfAeAe; R = (R)-5′-methyl-2′-deoxyribonucleoside (antisense {P}-[5'R-Me-T]fUfGfUfCfUfCfUfGfGfUfCfCfU*fU*fA*fC*fU*fU*eA*eA; single-stranded RNA for RNAi)
T1/2 (h) of full length modified ssRNA having a 5′-terminal phosphate group [3]: 8.7 h

ISIS 398701: modified ssRNA, SEQ ID NO 09: P-USfUfGfUfCfUfCfUfGfGfUfCfCfUfUfAfCfUfUf (antisense UUGUCUCUGGUCCUUACUU; 5'-phosphate, 2'-fluoro, phosphorothioate, chemistry not fully specified)
T1/2 (h) of full length modified ssRNA having a 5′-terminal phosphate group [3]: 18.2 h
